Key:
Type in all cases: functional, cell-based
ACHN [1] = test: Cytotoxic activity against human ACHN bulk cells incubated for 72 hrs by Cell-titer-Glo luminescence assay
FaDu [2] = test: Cytotoxic activity against human FADU bulk cells incubated for 72 hrs by Cell-titer-Glo luminescence assay
ACHN [3] = test: Cytotoxic activity against human ACHN cancer stem cells incubated for 72 hrs by Cell-titer-Glo luminescence assay
FaDu [4] = test: Cytotoxic activity against human FADU cancer stem cells incubated for 72 hrs by Cell-titer-Glo luminescence assay
A549 [5] = test: Cytotoxic activity against human A549 bulk cells incubated for 72 hrs by Cell-titer-Glo luminescence assay; conditions: A549, 72 h
A549 [6] = test: Cytotoxic activity against human A549 cancer stem cells incubated for 72 hrs by Cell-titer-Glo luminescence assay; conditions: A549, 72 h

Structure (SMILES) | IC50 (ACHN [1]) | IC50 (FaDu [2]) | IC50 (ACHN [3]) | IC50 (FaDu [4]) | IC50 (A549 [5]) | IC50 (A549 [6])
CCN(CC)CCNC(=O)c1c(C)[nH]c(/C=C2\C(=O)Nc3ccc(-c4cc(-c5ccccc5)ccn4)cc32)c1C | 2.41 µM | 2.58 µM | 0.9 µM | 9.67 µM | 1.5 µM | 2 µM
CCN(CC)CCNC(=O)CCc1c(C)[nH]c(/C=C2\C(=O)Nc3ccc(-c4csc(-c5ccncc5)n4)cc32)c1C | 7.42 µM | 28 µM | 1.24 µM | 4.57 µM | 10.1 µM | 35.7 µM
CCN(CC)CCNC(=O)c1c(C)[nH]c(/C=C2\C(=O)Nc3ccc(-c4cnccn4)cc32)c1C | 10.1 µM | 6.62 µM | 2.65 µM | 0.23 µM | 10.6 µM | 13.2 µM
CCN(CC)CCNC(=O)c1c(C)[nH]c(/C=C2\C(=O)Nc3cc(-c4cccc5ncccc45)ccc32)c1C | 2.66 µM | 4.83 µM | 0.42 µM | 2.64 µM | 2.88 µM | 8.61 µM
CCN(CC)CCNC(=O)c1c(C)[nH]c(/C=C2\C(=O)Nc3ccc(-c4ccc(OC)cc4C)cc32)c1C | 2.26 µM | 2.31 µM | 1.42 µM | 1.4 µM | 1.74 µM | 4.61 µM
CCN(CC)CCNC(=O)c1c(C)[nH]c(/C=C2\C(=O)Nc3ccc(-c4cccc(C#N)c4C)cc32)c1C | 5.23 µM | 4.27 µM | 0.57 µM | 4.73 µM | 2.8 µM | 4.48 µM
Cc1cc(C)c(/C=C2\C(=O)Nc3ccc(-c4n[nH]c5ccccc45)cc32)[nH]1 | 8.73 µM | 4.43 µM | 3.1 µM | 5.33 µM | 6.45 µM | 7.28 µM
CCN(CC)CCNC(=O)c1c(C)[nH]c(/C=C2\C(=O)Nc3ccc(-c4csc(-n5cccn5)n4)cc32)c1C | 7.88 µM | 4.68 µM | 0.62 µM | 5.11 µM | 3.71 µM | 6.64 µM
CCN(CC)CCNC(=O)c1c(C)[nH]c(/C=C2\C(=O)Nc3ccc(-c4cscc4C)cc32)c1C | 2.68 µM | 3.74 µM | 0.48 µM | 9.1 µM | 2.01 µM | 3.94 µM
CCN(CC)CCNC(=O)c1c(C)[nH]c(/C=C2\C(=O)Nc3cc(-c4ccc(C(=O)c5ccccc5)cc4)ccc32)c1C | 4.11 µM | 4.46 µM | 1.63 µM | 1.46 µM | 3.65 µM | 3.16 µM
CCN(CC)CCN(C)C(=O)c1c(C)[nH]c(/C=C2\C(=O)Nc3ccc(-c4csc(-c5ccccc5)n4)cc32)c1C | 11.3 µM | 18.3 µM | 0.69 µM | 3.6 µM | 9.94 µM | 10.5 µM
CCN(CC)CCNC(=O)c1c(C)[nH]c(/C=C2\C(=O)Nc3cc(-c4cnc5ccccc5n4)ccc32)c1C | 10.9 µM | 7.45 µM | 6.97 µM | 2.24 µM | 7.07 µM | 42.6 µM
CCN(CC)CCNC(=O)c1c(C)[nH]c(/C=C2\C(=O)Nc3cc(-c4ccc(O)cc4C)ccc32)c1C | 2.53 µM | 2.14 µM | 2.17 µM | 1.54 µM | 2.76 µM | 7.55 µM
O=C1Nc2ccc(-c3csc(C4CCNCC4)n3)cc2/C1=C/c1cc2c([nH]1)CCCC2 | 18.8 µM | 21.1 µM | 2.68 µM | 12 µM | 9.39 µM | 22.1 µM
Cc1cc(C)c(/C=C2\C(=O)Nc3ccc(-c4csc(-n5ccnc5)n4)cc32)[nH]1 | 8.84 µM | 14.5 µM | 2.72 µM | 37.4 µM | 9.31 µM | 35 µM
CCN(CC)CCNC(=O)c1c(C)[nH]c(/C=C2\C(=O)Nc3ccc(-c4cnc5cn[nH]c5c4)cc32)c1C | 2.74 µM | 1.49 µM | 10.8 µM | 0.16 µM | 3.24 µM | 26.4 µM
CCN(CC)CCNC(=O)c1c(C)[nH]c(/C=C2\C(=O)Nc3cc(-c4csc(-n5cccn5)n4)ccc32)c1C | 2.6 µM | 5.3 µM | 0.17 µM | 0.78 µM | 5.8 µM | 2.93 µM
CCN(CC)CCNC(=O)c1c(C)[nH]c(/C=C2\C(=O)Nc3ccc(-c4ccc(C=O)cc4)cc32)c1C | 2.81 µM | 12.1 µM | 4.34 µM | 7.51 µM | 10.6 µM | 5.84 µM
COC(=O)c1c(C)[nH]c(/C=C2\C(=O)Nc3ccc(-c4csc(-c5ccncc5)n4)cc32)c1C | 12.6 µM | 18.6 µM | 6.16 µM | 6.74 µM | 9.61 µM | 4.8 µM
CCN(CC)CCNC(=O)c1c(C)[nH]c(/C=C2\C(=O)Nc3ccc(-c4ncccc4C)cc32)c1C | 4.15 µM | 7.67 µM | 1.88 µM | 20 µM | 4.14 µM | 13.1 µM
CCN(CC)CCNC(=O)c1c(C)[nH]c(/C=C2\C(=O)Nc3ccc(-c4cnc5ccccn45)cc32)c1C | 4.65 µM | 4.63 µM | 3.44 µM | 17.6 µM | 5.86 µM | 17.2 µM
CCN(CC)CCNC(=O)c1c(C)[nH]c(/C=C2\C(=O)Nc3ccc(-c4cnc5cccnn45)cc32)c1C | 3.64 µM | 1.74 µM | 2.73 µM | 0.06 µM | 3.66 µM | 6.64 µM
CCN(CC)CCNC(=O)c1cc(C)c(/C=C2\C(=O)Nc3ccc(-c4csc(-c5ccccc5)n4)cc32)[nH]1 | 14.9 µM | 11.4 µM | 4.04 µM | 3.13 µM | 4 µM | 26.7 µM
CCN(CC)CCNC(=O)c1c(C)[nH]c(/C=C2\C(=O)Nc3ccc(-c4cnc5ccccc5n4)cc32)c1C | 5.73 µM | 2.66 µM | 5.59 µM | 0.04 µM | 8.13 µM | 42.3 µM
CCN(CC)CCNC(=O)c1c(C)[nH]c(/C=C2\C(=O)Nc3ccc(-c4ncccn4)cc32)c1C | 3.5 µM | 6.02 µM | 1.15 µM | 0.09 µM | 15.4 µM | 18 µM
CCN(CC)CCNC(=O)c1c(C)[nH]c(/C=C2\C(=O)Nc3ccc(-c4nc5ccccc5s4)cc32)c1C | 9.53 µM | 4.93 µM | 0.98 µM | 5.97 µM | 3.73 µM | 4.13 µM
Cc1[nH]c(/C=C2\C(=O)Nc3ccc(-c4ccc(-c5ccccc5)s4)cc32)c(C)c1C(=O)N1CCOCC1 | 12.8 µM | 21.1 µM | 0.23 µM | 2.47 µM | 10.1 µM | 11 µM
Cc1[nH]c(/C=C2\C(=O)Nc3ccc(-c4csc(-c5ccccc5)n4)cc32)c(C)c1S(=O)(=O)N1CCOCC1 | 10.7 µM | 11.4 µM | 0.56 µM | 0.21 µM | 7.28 µM | 3.73 µM
O=C1Nc2ccc(-c3csc(-c4ccccc4)n3)cc2/C1=C/c1ncc[nH]1 | 1.44 µM | 7.57 µM | 2.91 µM | 2.5 µM | 17.2 µM | 2.31 µM
